Each compound was assayed against T1, human μ-opiate receptor (Homo sapiens, UniProt P35372) (assay: Affinity for the human μ-opiate receptor ([3H]-naloxone displacement, SPA)). Conditions: Table 2, Examples 11-161; test substance 1 μmole/l; inhibition of specific [3H]-naloxone binding; CHO-K1 membranes; read-out: μ-Opioid receptor, % inhibition [1 μM].
T1 construct: purchased PerkinElmer Life Sciences, Zaventem, Belgium RB-HOM; host or cells: CHO-K1 cells (recombinant expression; membrane preparation)
T1 sequence (P35372 whole entry): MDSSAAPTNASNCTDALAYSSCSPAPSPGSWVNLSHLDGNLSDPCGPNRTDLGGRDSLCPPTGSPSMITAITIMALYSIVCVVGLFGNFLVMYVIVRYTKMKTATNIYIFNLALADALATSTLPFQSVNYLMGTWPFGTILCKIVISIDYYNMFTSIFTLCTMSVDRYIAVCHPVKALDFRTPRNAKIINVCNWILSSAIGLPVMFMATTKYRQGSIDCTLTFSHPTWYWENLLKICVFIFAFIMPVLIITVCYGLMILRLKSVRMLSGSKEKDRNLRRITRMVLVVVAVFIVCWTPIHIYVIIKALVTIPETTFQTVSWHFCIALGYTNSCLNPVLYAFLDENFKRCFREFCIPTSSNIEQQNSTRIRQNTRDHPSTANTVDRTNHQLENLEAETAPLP
In short: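 CHO-K1 membranes expressing the receptor, incubated 90 min at room temperature with 1 nmol/l [3H]-naloxone and WGA-SPA beads in 50 mmol/l Tris-HCl with 0.06% BSA. Non-specific binding defined with 100 μmol/l naloxone. Value is % inhibition of specific binding at 1 μmol/l test substance.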
Work on `CCCN1C=NC(CCC(=O)OC)(C(=O)OC)C1CC1CCC(C(c2ccc(F)cc2)N(C)C)CC1` (stereo not drawn) [Example 159, 5-{4-[dimethylamino-(4-fluorophenyl)-methyl]-cyclohexylmethyl}-4-(2-methoxycarbonylethyl)-1-propyl-4,5-dihydro-1H-imidazole-4-carboxylic acid methyl ester] yielded an inhibition at 1 µM of 79%.
Compound `CCCCC1(C(=O)OC)N=CN(C2CCCCC2)C1C1CCC(C(c2cccc(F)c2)N(C)C)CC1` (stereo not drawn) [Example 13, 4-butyl-1-cyclohexyl-5-{4-[dimethylamino-(3-fluorophenyl)-methyl]-cyclohexyl}-4,5-dihydro-1H-imidazole-4-carboxylic acid methyl ester] has an inhibition at 1 µM of 94%.
With `CCCC1(C(=O)OC)N=CN(Cc2ccccc2)C1CC1CCC(C(CCc2ccccc2)N(C)C)CC1` (stereo not drawn) [Example 144, 1-benzyl-5-[4-(1-dimethylamino-3-phenylpropyl)-cyclohexylmethyl]-4-propyl-4,5-dihydro-1H-imidazole-4-carboxylic acid methyl ester] the inhibition at 1 µM was 90%.
`COC(=O)C1(CSCc2ccccc2)N=CN(C2CCCCC2)C1C1CCC(C(c2ccc(Cl)cc2)N(C)C)CC1` (stereo not drawn) [Example 52, 4-benzylsulfanylmethyl-5-{4-[(4-chlorophenyl)-dimethylaminomethyl]-cyclohexyl}-1-cyclohexyl-4,5-dihydro-1H-imidazole-4-carboxylic acid methyl ester] gave an inhibition at 1 µM of 99%.
Work on `COC(=O)CCC1(C(=O)OC)N=CN(C2CCCCC2)C1C1CCC(C(c2cccc(F)c2)N(C)C)CC1` (stereo not drawn) [Example 115, 1-cyclohexyl-5-{4-[dimethylamino-(3-fluorophenyl)-methyl]-cyclohexyl}-4-(2-methoxycarbonylethyl)-4,5-dihydro-1H-imidazole-4-carboxylic acid methyl ester] yielded an inhibition at 1 µM of 98%.
`CCCN1C=NC(CCC(=O)OC)(C(=O)OC)C1CC1CCC(C(CCc2ccccc2)N(C)C)CC1` (stereo not drawn) [Example 71, 5-[4-(1-dimethylamino-3-phenylpropyl)-cyclohexylmethyl]-4-(2-methoxycarbonylethyl)-1-propyl-4,5-dihydro-1H-imidazole-4-carboxylic acid methyl ester] gave an inhibition at 1 µM of 78%.
`CCCN1C=NC(CCC(=O)OC)(C(=O)OC)C1CC1CCC(C(c2ccc(Cl)cc2)N(C)C)CC1` (stereo not drawn) [Example 61, 5-{4-[(4-chlorophenyl)-dimethylaminomethyl]-cyclohexylmethyl}-4-(2-methoxycarbonylethyl)-1-propyl-4,5-dihydro-1H-imidazole-4-carboxylic acid methyl ester] gave an inhibition at 1 µM of 93%.
In the case of `CCCN1C=NC(CCC)(C(=O)OC)C1CC1CCC(C(c2ccc(F)cc2)N(C)C)CC1` (stereo not drawn) [Example 118, 5-{4-[dimethylamino-(4-fluorophenyl)-methyl]-cyclohexylmethyl}-1,4-dipropyl-4,5-dihydro-1H-imidazole-4-carboxylic acid methyl ester], the inhibition at 1 µM is reported as 87%.
For `CCCCN1C=NC(CCC(=O)OC)(C(=O)OC)C1CC1CCC(C(c2ccc(Cl)cc2)N(C)C)CC1` (stereo not drawn) [Example 70, 1-butyl-5-{4-[(4-chlorophenyl)-dimethylaminomethyl]-cyclohexylmethyl}-4-(2-methoxycarbonylethyl)-4,5-dihydro-1H-imidazole-4-carboxylic acid methyl ester], the inhibition at 1 µM was 96%.
In the case of `COC(=O)C1(C)N=CN(C2CCCCC2)C1CC1CCC(C(c2cccc(F)c2)N(C)C)CC1` (stereo not drawn) [Example 104, 1-cyclohexyl-5-{4-[dimethylamino-(3-fluorophenyl)-methyl]-cyclohexylmethyl}-4-methyl-4,5-dihydro-1H-imidazole-4-carboxylic acid methyl ester], the inhibition at 1 µM is reported as 93%.
`CCCN1C=NC(C(=O)OC)(C(C)CC)C1CC1CCC(C(c2ccc(Cl)cc2)N(C)C)CC1` (stereo not drawn) [Example 62, 4-sec-butyl-5-{4-[(4-chlorophenyl)-dimethylaminomethyl]-cyclohexylmethyl}-1-propyl-4,5-dihydro-1H-imidazole-4-carboxylic acid methyl ester] showed an inhibition at 1 µM of 98%.
`CCCCC1(C(=O)OC)N=CN(CCc2ccccc2)C1C1CCC(C(c2cccc(F)c2)N(C)C)CC1` (stereo not drawn) [Example 39, 4-butyl-5-{4-[dimethylamino-(3-fluorophenyl)-methyl]-cyclohexyl}-1-phenethyl-4,5-dihydro-1H-imidazole-4-carboxylic acid methyl ester] was tested, and the inhibition at 1 µM was 88%.
`COC(=O)C1(CSCc2ccccc2)N=CN(Cc2ccccc2)C1CC1CCC(C(c2cccc(F)c2)N(C)C)CC1` (stereo not drawn) [Example 86, 1-benzyl-4-benzylsulfanylmethyl-5-{4-[dimethylamino-(3-fluorophenyl)-methyl]-cyclohexylmethyl}-4,5-dihydro-1H-imidazole-4-carboxylic acid methyl ester] was tested, and the inhibition at 1 µM was 71%.
Work on `COC(=O)C1(C)N=CN(CCc2ccccc2)C1CC1CCC(C(c2ccc(F)cc2)N(C)C)CC1` (stereo not drawn) [Example 134, 5-{4-[dimethylamino-(4-fluorophenyl)-methyl]-cyclohexylmethyl}-4-methyl-1-phenethyl-4,5-dihydro-1H-imidazole-4-carboxylic acid methyl ester] yielded an inhibition at 1 µM of 92%.
Work on `CCCC1(C(=O)OC)N=CN(Cc2ccccc2)C1CC1CCC(C(c2cccc(F)c2)N(C)C)CC1` (stereo not drawn) [Example 138, 1-benzyl-5-{4-[dimethylamino-(3-fluorophenyl)-methyl]-cyclohexylmethyl}-4-propyl-4,5-dihydro-1H-imidazole-4-carboxylic acid methyl ester] yielded an inhibition at 1 µM of 101%.
With `COC(=O)C1(C)N=CN(Cc2ccccc2)C1CC1CCC(C(c2ccc(F)cc2)N(C)C)CC1` (stereo not drawn) [Example 143, 1-benzyl-5-{4-[dimethylamino-(4-fluorophenyl)-methyl]-cyclohexylmethyl}-4-methyl-4,5-dihydro-1H-imidazole-4-carboxylic acid methyl ester] the inhibition at 1 µM was 100%.
`CCC(C)C1(C(=O)OC)N=CN(C2CCCCC2)C1CC1CCC(C(c2cccc(F)c2)N(C)C)CC1` (stereo not drawn) [Example 148, 4-sec-butyl-1-cyclohexyl-5-{4-[dimethylamino-(3-fluorophenyl)-methyl]-cyclohexylmethyl}-4,5-dihydro-1H-imidazole-4-carboxylic acid methyl ester] gave an inhibition at 1 µM of 95%.
For `COC(=O)C1(CCSC)N=CN(C2CCCCC2)C1CC1CCC(C(c2cccc(F)c2)N(C)C)CC1` (stereo not drawn) [Example 103, 1-cyclohexyl-5-{4-[dimethylamino-(3-fluorophenyl)-methyl]-cyclohexylmethyl}-4-(2-methylsulfanyl-ethyl)-4,5-dihydro-1H-imidazole-4-carboxylic acid methyl ester], the inhibition at 1 µM was 99%.
With `CCCC1(C(=O)OC)N=CN(C2CCCCC2)C1CC1CCC(C(c2cccc(F)c2)N(C)C)CC1` (stereo not drawn) [Example 102, 1-cyclohexyl-5-{4-[dimethylamino-(3-fluorophenyl)-methyl]-cyclohexylmethyl}-4-propyl-4,5-dihydro-1H-imidazole-4-carboxylic acid methyl ester] the inhibition at 1 µM was 91%.
`CCCCC1(C(=O)OC)N=CN(C2CCCCC2)C1C1CCC(C(c2ccc(Cl)cc2)N(C)C)CC1` (stereo not drawn) [Example 16, 4-butyl-5-{4-[(4-chlorophenyl)-dimethylaminomethyl]-cyclohexyl}-1-cyclohexyl-4,5-dihydro-1H-imidazole-4-carboxylic acid methyl ester] gave an inhibition at 1 µM of 92%.
In the case of `CCCCN1C=NC(Cc2ccc(Cl)cc2)(C(=O)OC)C1C1CCC(C(c2cccc(F)c2)N(C)C)CC1` (stereo not drawn) [Example 30, 1-butyl-4-(4-chlorobenzyl)-5-{4-[dimethylamino-(3-fluorophenyl)-methyl]-cyclohexyl}-4,5-dihydro-1H-imidazole-4-carboxylic acid methyl ester], the inhibition at 1 µM is reported as 89%.
`COC(=O)C1(CSCc2ccccc2)N=CN(Cc2ccccc2)C1C1CCC(C(c2cccc(F)c2)N(C)C)CC1` (stereo not drawn) [Example 97, 1-benzyl-4-benzylsulfanylmethyl-5-{4-[dimethylamino-(3-fluorophenyl)-methyl]-cyclohexyl}-4,5-dihydro-1H-imidazole-4-carboxylic acid methyl ester] showed an inhibition at 1 µM of 97%.
In the case of `COC(=O)CCC1(C(=O)OC)N=CN(Cc2ccccc2)C1C1CCC(C(c2cccc(F)c2)N(C)C)CC1` (stereo not drawn) [Example 95, 1-benzyl-5-{4-[dimethylamino-(3-fluorophenyl)-methyl]-cyclohexyl}-4-(2-methoxycarbonylethyl)-4,5-dihydro-1H-imidazole-4-carboxylic acid methyl ester], the inhibition at 1 µM is reported as 94%.
`CCCN1C=NC(CSC)(C(=O)OC)C1CC1CCC(C(c2ccc(Cl)cc2)N(C)C)CC1` (stereo not drawn) [Example 63, 5-{4-[(4-chlorophenyl)-dimethylaminomethyl]-cyclohexylmethyl}-4-methylsulfanylmethyl-1-propyl-4,5-dihydro-1H-imidazole-4-carboxylic acid methyl ester] was tested, and the inhibition at 1 µM was 97%.
`CCCCN1C=NC(CSC)(C(=O)OC)C1CC1CCC(C(c2ccc(Cl)cc2)N(C)C)CC1` (stereo not drawn) [Example 89, 1-butyl-5-{4-[(4-chlorophenyl)-dimethylaminomethyl]-cyclohexylmethyl}-4-methylsulfanylmethyl-4,5-dihydro-1H-imidazole-4-carboxylic acid methyl ester] was tested, and the inhibition at 1 µM was 96%.
`COC(=O)C1(CSC)N=CN(C2CCCCC2)C1CC1CCC(C(c2cccc(F)c2)N(C)C)CC1` (stereo not drawn) [Example 149, 1-cyclohexyl-5-{4-[dimethylamino-(3-fluorophenyl)-methyl]-cyclohexylmethyl}-4-methylsulfanylmethyl-4,5-dihydro-1H-imidazole-4-carboxylic acid methyl ester] gave an inhibition at 1 µM of 99%.
`CCCC1(C(=O)OC)N=CN(C2CCCCC2)C1CC1CCC(C(c2ccc(F)cc2)N(C)C)CC1` (stereo not drawn) [Example 105, 1-cyclohexyl-5-{4-[dimethylamino-(4-fluorophenyl)-methyl]-cyclohexylmethyl}-4-propyl-4,5-dihydro-1H-imidazole-4-carboxylic acid methyl ester] was tested, and the inhibition at 1 µM was 95%.
